Laboratory results from patent US10745401B2, “Condensed lactam derivative” (Sumitomo Dainippon Pharma Co., Ltd., priority 2018, dated 2020).

Key:
human 5-HT1A receptor [1] = molecular target: T1, human 5-HT1A receptor (Homo sapiens (Human), UniProt P08908); assay: Test 1: binding activity for human 5-HT1A receptor ([3H]8-OH-DPAT, CHO cell membrane fraction)
Outline: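 Membranes incubated with [3H]8-OH-DPAT and compound for 60 min at room temperature, then filtered on polyethylenimine-coated glass-fibre plates and counted by liquid scintillation. IC50 from Hill analysis; Ki = IC50/(1+S/Kd), Kd from saturation binding on the same membranes.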

human 5-HT2A receptor [2] = molecular target: T2, human 5-HT2A receptor (Homo sapiens (Human), UniProt P28223); assay: Test 1: binding activity for human 5-HT2A receptor ([3H]Ketanserin, CHO cell membrane fraction)
Description: Test 1: Evaluation of Binding Activity for Human 5-HT1A Receptor, Human 5-HT2A Receptor, and Human D2 Receptor
Binding affinity of the present compound for human 5-HT1A receptor, human 5-HT2A receptor, and human D2 receptor was measured by the following procedures.
Each mixture was incubated at room temperature for 60 minutes. Then, the mixture was added quickly on a glassfiber filter plate (Multiscreen FB, Millipore, Inc.) coated with 0.3% aqueous polyethylenimine, and vacuum-filtered. Radioactivity remaining on the filter was measured with a liquid scintillation counter (PerkinElmer, Inc.). Binding inhibition rate was calculated from the following formula.
Ki of each compound was calculated from the following formula. Binding inhibition constant (Ki)=IC50/(1+S/Kd) wherein S is concentration of ligand; Kd is a binding dissociation constant of ligand to membrane, which is calculated from a saturated binding experiment conducted with the same cell membrane. A small Ki value means strong binding ability to a receptor.

human 5-HT1A receptor [3] = molecular target: T1, human 5-HT1A receptor; assay: Test 2: agonist activity for human 5-HT1A receptor ([35S]GTPγS binding); type: biochemical; conditions: for EC50: [35S]GTPγS binding, concentration at which half the activity of Emax was obtained; for Emax at 10 µM: agonist activity in the presence of 10 μM of compound, relative to 100 μmol/L 5-HT
Outline: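 Membranes from CHO cells expressing human 5-HT1A incubated with compound, GDP-containing buffer and [35S]GTPγS for 60 min at room temperature. Bound radioactivity collected by glass-fibre filtration and counted by liquid scintillation; agonist activity derived from a formula.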

human 5-HT2A receptor [4] = molecular target: T2, human 5-HT2A receptor; assay: Test 3: antagonist activity for human 5-HT2A receptor (aequorin luminescence, CHO-K1 cells); type: cell-based; conditions: CHO-K1 cells, 1 nmol/L 5-HT
Description: Test 3: Evaluation of Antagonist Activity for Human 5-HT2A Receptor
Aequorin, Gα16 protein, and each receptor were transiently expressed in CHO-K1 cells (Chinese hamster ovary). […] Each compound dissolved in DMSO was added thereto, and changes in luminescence were measured by FDSS/μCELL functional drug screening system (Hamamatsu Photonics K.K.). Antagonist activity was calculated from the following formula. Antagonist activity (%)=100×{(Luminescence of well in the presence of 1 nmol/L 5-HT−Luminescence of well containing solvent)−(Luminescence of well in the presence of test compound and 1 nmol/L 5-HT−Luminescence of well containing solvent)}/(Luminescence of well in the presence of 1 nmol/L 5-HT−Luminescence of well containing solvent)

[5] = Test 4: metabolic stability test in human hepatic microsome; type: in vitro ADME; conditions: 0.1 mg/mL microsome, 0.1 μmol/L compound, 37° C., 30 minutes
Outline: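 Compound at 0.1 μmol/L incubated 30 min at 37° C with human liver microsomes (0.1 mg/mL) and NADPH (3.2 mmol/L) in 25 mmol/L phosphate buffer, pH 7.4. Residual compound measured by LC-MS; stability (mL/min/mg protein) = −LN(residual ratio)/30/0.1.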

hERG channel = hERG channel (Homo sapiens (Human), UniProt Q12809); assay: Test 6-1: inhibitory activity for hERG channel (auto patch clamp, Qpatch); type: cell-based; conditions: for IC50: whole cell auto patch clamp, hERG-CHO cells, read-out: hERG inhibition IC50; for hERG inhibition IC50 (nmol/L)/5-HT1A Ki (nmol/L): ratio of hERG IC50 to 5-HT1A Ki; for hERG inhibition IC50 (nmol/L)/5-HT2A Ki (nmol/L): ratio of hERG IC50 to 5-HT2A Ki
Outline: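 Whole-cell patch clamp on an automated system using CHO cells stably expressing human hERG (IKr); 15 s pulse interval. Four increasing compound concentrations applied cumulatively; mean peak tail current from last 3 stimulations per concentration used. IC50 from inhibition versus pre-compound current, fitted by Hill equation.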

human D2 receptor = human D2 receptor (Homo sapiens (Human), UniProt P14416); assay: Test 1: binding activity for human D2 receptor ([3H]Spiperone, CHO cell membrane fraction); conditions: for Ki: human D2 receptor, [3H]Spiperone; for D2 Ki/5-HT1A Ki / D2 Ki/5-HT2A Ki: selectivity ratio
Outline: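 CHO-cell membranes with [3H]ketanserin (5-HT2A) or [3H]spiperone (D2) were incubated with compound for 60 min at room temperature, then filtered, and bound radioactivity was counted by scintillation. Ki = IC50/(1+S/Kd), with ligand Kd from saturation binding on the same membranes.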

T2 sequence (P28223 whole entry): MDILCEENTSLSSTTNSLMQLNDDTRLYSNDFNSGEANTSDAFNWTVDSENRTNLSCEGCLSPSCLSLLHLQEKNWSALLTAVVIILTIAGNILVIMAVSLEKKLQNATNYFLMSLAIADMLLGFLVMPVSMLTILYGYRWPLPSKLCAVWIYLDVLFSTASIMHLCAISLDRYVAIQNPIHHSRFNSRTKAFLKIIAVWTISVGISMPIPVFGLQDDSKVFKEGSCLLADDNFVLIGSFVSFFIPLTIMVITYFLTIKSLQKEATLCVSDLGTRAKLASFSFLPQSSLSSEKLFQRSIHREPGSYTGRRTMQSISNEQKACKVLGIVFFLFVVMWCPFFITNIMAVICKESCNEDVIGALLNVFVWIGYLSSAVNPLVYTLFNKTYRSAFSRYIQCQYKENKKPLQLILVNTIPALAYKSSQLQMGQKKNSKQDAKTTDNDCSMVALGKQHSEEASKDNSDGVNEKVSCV
T1 sequence (P08908 whole entry): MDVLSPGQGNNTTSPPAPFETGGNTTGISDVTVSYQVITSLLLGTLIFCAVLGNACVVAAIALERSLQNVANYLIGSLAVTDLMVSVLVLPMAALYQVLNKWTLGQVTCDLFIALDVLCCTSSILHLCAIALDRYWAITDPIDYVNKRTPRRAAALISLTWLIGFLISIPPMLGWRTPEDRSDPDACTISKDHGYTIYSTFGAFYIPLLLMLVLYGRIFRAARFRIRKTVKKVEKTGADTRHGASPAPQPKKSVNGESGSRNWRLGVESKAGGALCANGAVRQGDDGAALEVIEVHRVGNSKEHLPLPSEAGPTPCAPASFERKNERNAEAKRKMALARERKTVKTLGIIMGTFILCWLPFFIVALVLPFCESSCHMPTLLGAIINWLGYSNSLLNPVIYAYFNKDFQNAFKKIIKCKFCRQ
Chain of hERG channel (Q12809 whole entry): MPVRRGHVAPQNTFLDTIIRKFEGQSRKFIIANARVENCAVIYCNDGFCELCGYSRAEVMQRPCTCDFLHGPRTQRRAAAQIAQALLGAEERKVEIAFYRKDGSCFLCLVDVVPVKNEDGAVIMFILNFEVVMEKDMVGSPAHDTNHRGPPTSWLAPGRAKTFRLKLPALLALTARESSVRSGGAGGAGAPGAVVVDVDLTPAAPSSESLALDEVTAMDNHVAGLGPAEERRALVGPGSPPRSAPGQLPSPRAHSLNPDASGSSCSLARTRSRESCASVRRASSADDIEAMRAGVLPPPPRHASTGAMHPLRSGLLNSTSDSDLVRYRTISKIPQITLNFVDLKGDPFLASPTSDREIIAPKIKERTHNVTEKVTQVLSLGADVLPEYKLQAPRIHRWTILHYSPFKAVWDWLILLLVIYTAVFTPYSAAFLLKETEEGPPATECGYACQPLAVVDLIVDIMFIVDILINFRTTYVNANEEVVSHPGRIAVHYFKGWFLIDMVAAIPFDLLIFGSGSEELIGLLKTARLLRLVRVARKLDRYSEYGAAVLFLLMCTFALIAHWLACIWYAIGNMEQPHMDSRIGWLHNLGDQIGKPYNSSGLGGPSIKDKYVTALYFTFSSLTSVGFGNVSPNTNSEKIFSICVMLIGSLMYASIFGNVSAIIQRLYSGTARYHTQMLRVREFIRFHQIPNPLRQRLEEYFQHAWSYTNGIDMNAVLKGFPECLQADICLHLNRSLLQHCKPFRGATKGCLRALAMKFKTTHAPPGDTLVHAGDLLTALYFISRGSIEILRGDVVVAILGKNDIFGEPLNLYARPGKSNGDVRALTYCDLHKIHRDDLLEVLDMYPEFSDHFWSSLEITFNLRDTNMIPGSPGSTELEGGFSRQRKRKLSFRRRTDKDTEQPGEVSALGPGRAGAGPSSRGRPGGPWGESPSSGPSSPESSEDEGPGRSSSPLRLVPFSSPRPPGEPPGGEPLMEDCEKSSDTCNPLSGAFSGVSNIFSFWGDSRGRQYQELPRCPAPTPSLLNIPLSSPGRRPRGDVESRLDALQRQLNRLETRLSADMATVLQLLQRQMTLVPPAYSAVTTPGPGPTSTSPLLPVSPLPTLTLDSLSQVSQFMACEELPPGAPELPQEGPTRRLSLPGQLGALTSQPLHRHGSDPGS
Chain of human D2 receptor (P14416 whole entry): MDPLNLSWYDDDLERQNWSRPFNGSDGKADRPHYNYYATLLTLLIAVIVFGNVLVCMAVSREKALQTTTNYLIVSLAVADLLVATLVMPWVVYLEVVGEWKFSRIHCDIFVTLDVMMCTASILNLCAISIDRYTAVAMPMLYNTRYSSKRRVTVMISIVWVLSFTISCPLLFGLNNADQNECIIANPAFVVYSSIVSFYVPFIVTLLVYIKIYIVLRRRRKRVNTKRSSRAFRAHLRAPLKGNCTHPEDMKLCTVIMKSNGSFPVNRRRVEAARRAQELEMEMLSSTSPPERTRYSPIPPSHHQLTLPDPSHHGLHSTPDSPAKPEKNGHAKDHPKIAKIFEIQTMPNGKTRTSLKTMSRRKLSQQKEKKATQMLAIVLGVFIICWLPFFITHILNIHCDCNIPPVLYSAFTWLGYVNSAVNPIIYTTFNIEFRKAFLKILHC

| Structure (SMILES) | Ki (human 5-HT1A receptor [1]) | Ki (human 5-HT2A receptor [2]) | EC50 (human 5-HT1A receptor [3]) | Emax at 10 µM (human 5-HT1A receptor [3]) | IC50 (human 5-HT2A receptor [4]) | Metabolic stability in human hepatic microsome [5] | IC50 (hERG channel) | Ki (human D2 receptor) | D2 Ki/5-HT1A Ki (human D2 receptor) | D2 Ki/5-HT2A Ki (human D2 receptor) | hERG inhibition IC50 (nmol/L)/5-HT1A Ki (nmol/L) (hERG channel) | hERG inhibition IC50 (nmol/L)/5-HT2A Ki (nmol/L) (hERG channel) | IC50 (human 5-HT2A receptor [4]; aequorin luminescence) |
| --- | --- | --- | --- | --- | --- | --- | --- | --- | --- | --- | --- | --- | --- |
| O=C1c2ncccc2CCN1CCN1CCN(c2noc3ccccc23)CC1 [Example 1, 7-{2-[4-(1,2-Benzoisoxazol-3-yl)piperazin-1-yl]ethyl}-6,7-dihydro-1,7-naphthyridin-8(5H)-one] | 21.5 nM | 49 nM | 94.7 nM | 50% | 44.6 nM | <0.01 mL/min/mg protein | > 10000 nM |  |  |  |  |  |  |
| O=C1c2cnccc2CCN1CCN1CCN(c2nsc3ccccc23)CC1 [Example 18] | 10.6 nM | 3.7 nM | 18 nM | 90% | 36 nM | 0.124 mL/min/mg protein | 5900 nM |  |  |  |  |  |  |
| O=C1c2ncccc2CCC1CCN1CCC(c2noc3ccccc23)CC1 (stereo not drawn) [Example 24] | 13.2 nM | 3.55 nM | 63.2 nM | 31% | 33 nM | 0.018 mL/min/mg protein | 400 nM |  |  |  |  |  |  |
| Cn1ncc2c1CCC(CCN1CCC(c3noc4ccccc34)CC1)C2=O (stereo not drawn) [Example 28] | 13.8 nM | 1.4 nM | 7.59 nM | 94% | 9.8 nM | 0.017 mL/min/mg protein | 1400 nM |  |  |  |  |  |  |
| Cc1noc2c1C(=O)N(CCN1CCN(c3noc4ccccc34)CC1)CC2 [Example 32, 5-{2-[4-(1,2-Benzoisoxazol-3-yl)piperazin-1-yl]ethyl}-3-methyl-6,7-dihydro[1,2]oxazolo[4,5-c]pyridin-4(5H)-one] | 124 nM | 60 nM | 644 nM | 39% | 95 nM | <0.01 mL/min/mg protein | 5500 nM |  |  |  |  |  |  |
| Cc1noc2c1C(=O)N(CCN1CCC(c3noc4ccccc34)CC1)CCC2 [Example 38] | 13.5 nM | 4.44 nM | 395 nM | 56% | 24 nM | 0.136 mL/min/mg protein | 500 nM |  |  |  |  |  |  |
| Cn1ncc2c1C(=O)N(CCN1CCN(c3nsc4ccccc34)CC1)CCC2 [Example 47] | 16.9 nM | 17.9 nM | 92.2 nM | 65% | 4.96 nM | 0.418 mL/min/mg protein | 4000 nM |  |  |  |  |  |  |
| Cn1cnc2c1C(=O)N(CCN1CCN(c3nsc4ccccc34)CC1)CC2 [Example 56] | 78 nM | 0.11 nM | 66.6 nM | 58% | 6 nM | 0.195 mL/min/mg protein | 7600 nM |  |  |  |  |  |  |
| Cn1cnc2c1CCCN(CCN1CCC(c3noc4ccccc34)CC1)C2=O [Example 101, 5-{2-[4-(1,2-Benzoisoxazol-3-yl)piperidin-1-yl]ethyl}-1-methyl-5,6,7,8-tetrahydroimidazo[4,5-c]azepin-4(1H)-one] | 60.1 nM | 1.9 nM | 612 nM | 47% | 46 nM |  | 4100 nM | 1020 nM | 17 | 538 | 68 | 2165 |  |
| Cc1cc2ccn(CCN3CCN(c4noc5ccccc45)CC3)c(=O)c2cn1 [Example 113, 2-{2-[4-(1,2-Benzoisoxazol-3-yl)piperazin-1-yl]ethyl}-6-methyl-2,7-naphthyridin-1(2H)-one] | 14.4 nM | 3.7 nM | 16 nM | 67% | 8.63 nM | 0.079 mL/min/mg protein | 7000 nM |  |  |  |  |  |  |
| O=C1c2cccnc2CCN1CCN1CCC(c2noc3cc(F)ccc23)CC1 [Example 121] | 60.9 nM | 105 nM |  |  |  | <0.05 mL/min/mg protein | < 300 nM |  |  |  |  |  | 57.4 nM |
| O=c1c2cncnc2ccn1CCN1CCC(c2noc3ccccc23)CC1 [Example 129] | 51.4 nM | 20 nM | 370 nM | 31% |  | 0.084 mL/min/mg protein |  |  |  |  |  |  | 61.8 nM |
| COc1ccc2onc(C3CCN(CCN4CCc5cccnc5C4=O)CC3)c2c1 [Example 142] | 1.83 nM | 164 nM | 8.8 nM | 54% |  |  |  | > 10000 nM | >5452.0 | >61.0 |  |  | 3910 nM |
| CC1(CCN2CCN(c3noc4ccccc34)CC2)CCc2cccnc2C1=O (stereo not drawn) [Example 145] | 38.1 nM | 1.15 nM | 55.1 nM | 58% |  | 0.302 mL/min/mg protein | > 3000 nM |  |  |  |  |  | 19 nM |
| O=C1c2ncccc2CCN1CCN1CCN(c2noc3ccc(F)cc23)CC1 [Example 147] | 124 nM | 124 nM | 436 nM |  |  |  |  | > 10000 nM |  |  |  |  | 415 nM |
| COc1ccc2c(C3CCN(CCN4CCc5cccnc5C4=O)CC3)noc2c1 [Example 149] | 184 nM | 217 nM | 719 nM | 16% |  |  |  | > 10000 nM | >54.3 | >46.1 |  |  | 267 nM |
| O=c1c2cnc(C(F)(F)F)cc2ccn1CCN1CCN(c2noc3ccccc23)CC1 [Example 173] | 38.6 nM | 22.8 nM | 40.8 nM | 50% |  |  |  | > 10000 nM | >259.1 | >438.0 |  |  | 184 nM |
| Cn1cc2c(n1)CCN(CCN1CCC(c3noc4ccccc34)C1)C2=O (stereo not drawn) [Example 174] | 78.1 nM | 71.7 nM | 193 nM | 50% |  |  |  | > 10000 nM | >128.0 | >139.5 |  |  | 723 nM |
| Cc1ncc2c(n1)CCN(CCN1CCN(c3noc4ccccc34)CC1)C2=O [Example 179] | 283 nM | 22.9 nM |  |  |  | <0.05 mL/min/mg protein | > 10000 nM | > 10000 nM | >35.3 | >437.6 | >35 | >438 | 70.8 nM |
| CC(C)c1ncc2c(n1)CCN(CCN1CCN(c3nsc4ccccc34)CC1)C2=O [Example 180] | 32.2 nM | 4.28 nM | 1260 nM | 37% |  | 0.469 mL/min/mg protein |  | 1560 nM | 48.3 | 363.5 |  |  | 72.7 nM |
| Cc1ncc2c(=O)n(CCN3CCN(c4noc5ccccc45)CC3)ccc2n1 [Example 193, 6-{2-[4-(1,2-Benzoisoxazol-3-yl)piperazin-1-yl]ethyl}-2-methylpyrido[4,3-d]pyrimidin-5(6H)-one] | 387 nM | 122 nM | 756 nM | 27% |  |  |  | > 10000 nM | >25.8 | >81.7 |  |  | 143 nM |
